# Assays:
# ATM [1] = target: T1, ATM (Homo sapiens, UniProt Q13315); assay: Western blot of pATM, pKAP1 and pCHK2 in irradiated H1299 shGFP cells; type: cell-based; settings: irradiated (4 Gy) H1299 shGFP knockdown cells, inhibitor 1 h before irradiation, relative to DMSO control
# T1 construct: endogenous in cells; host or cells: H1299 shGFP and shATM cells
# Protocol: (§1) H1299 non-small cell lung cancer cells, either wild type or stably transfected with short hairpin RNA for ATM (shATM) or GFP (shGFP, as a control) expression knockdown, were kindly gifted by Dr Anderson Ryan at the University of Oxford. All cells were cultured at 37 °C and 5% CO2 in Dulbecco’s modified Eagle medium (DMEM) supplemented with 10% foetal bovine serum (FBS) (Gibco, USA), 2 mM L-glutamine, 100 units/mL penicillin, and 100 µg/mL streptomycin (PSG) (Sigma-Aldrich); knockdown cell lines were additionally supplemented with 0.5 μg/mL puromycin dihydrochloride (Merck Life Science, UK). Cells were originally purchased from ATCC and were authenticated by the provider and by STR profiling. Cells were tested regularly for the absence of mycoplasma contamination and were cultured for a maximum of 20 passages after resuscitation from liquid nitrogen storage.
# ATM [2] = target: T1, ATM; assay: Blocking of [18F]1 cell-associated activity by non-radioactive ATM inhibitors; type: cell-based; settings: for effect on [18F]1 cell-associated activity at high molar excess: 1000 nM inhibitor, compared to DMSO control; for effect on [18F]1 cell-associated activity at lower inhibitor concentrations: 0.1–10 nM inhibitor
# Protocol: as §1
# PI3K = test system: PI3K; parameters: method as in earlier work; settings: read-out: Cellular IC50 by catalytic inhibition: PI3K; cited from earlier work
# murine ATM = target: T2, murine ATM (Mus musculus, UniProt Q62388); assay: Western blot of ATM inhibition in CT26 murine colorectal cancer cells; type: cell-based
# T2 construct: endogenous in cells; host or cells: CT26 murine colorectal cancer cells
# Protocol: Western blot analysis was performed to compare the total ATM expression between cell models, in addition to expression of phospho-ATM^S1981 (pATM), phospho-KAP1^S824 (pKAP1), and phospho-CHK2^T68 (pCHK2) expression to assess the effect of irradiation and ATM inhibition on ATM catalytic activity. Cells were irradiated (4 Gy; 0.75 Gy/min) or sham-irradiated and incubated at 37 °C for 1 h before harvesting cells for lysis and blotting (full details in supporting information). Where required, inhibitors were added to cells at the stated concentration from DMSO stock solutions (reaching no greater than 10% DMSO final concentration) with incubation for 1 h prior to irradiation/sham-irradiation. The following antibodies and dilutions were used in this work: phospho-ATM S1981 (ab81292, 1:5000, Abcam); phospho-KAP1 S824 (ab133440, 1:10,000, Abcam); phospho-CHK2 T68 (#2661, 1:1000, Cell Signalling Technologies); Total ATM (ab32420, clone [Y170], 1:500, Abcam); Total KAP1 (ab10483, 1:1000, Abcam); Total CHK2 (05-649, 1:1000, Merck Millipore); HRP-conjugated Tubulin (ab197740, clone [YL1/2], 1:4000, Abcam); HRP-conjugated β-Actin (clone 13E5, 1:1000, Cell Signalling Technologies), HRP-conjugated anti-rabbit secondary (HAF008, 1:1000, R&D Systems); and HRP-conjugated anti-mouse secondary (HAF007, 1:1000, R&D Systems). […]
# ATR = test system: ATR; parameters: method as in earlier work; settings: read-out: Cellular IC50 by catalytic inhibition: ATR; cited from earlier work
# mTOR = test system: mTOR; parameters: method as in earlier work; settings: read-out: Cellular IC50 by catalytic inhibition: mTOR; cited from earlier work
# ATM [3] = test system: ATM; parameters: method as in earlier work; settings: cited from earlier work
# [4] = test system: H1299 shATM and shGFP cells; assay: Cell retention of [18F]1; type: cell-based, human; settings: after 1 h incubation with tracer, over 2 h
# Protocol: as §1
# Retention assays followed the same procedure with a 1-h incubation of cell with [^18F]1, but after culture medium was aspirated and cells washed with PBS (2 × 500 μL), it was replaced (500 μL DMEM) and cells incubated at 37 °C and 5% CO2 for the desired time. The amount of ^18F-activity retained in cells was then determined as above.
# [5] = test system: H1299 shATM and shGFP cells; assay: Cell uptake of [18F]1; type: cell-based, human; settings: irradiated 4 Gy or sham-irradiated, 37 °C
# Protocol: as §1
# To assess cellular uptake of [^18F]1, aliquots of H1299 shATM or shGFP cells were plated with 1 × 10^5 cells per well in 24-well plates in 500 μL complete growth medium and incubated overnight to allow cells to adhere. Cell culture medium was removed, cells washed with PBS and media replaced with DMEM (no additives). […] The amount of ^18F-activity associated with each fraction was determined using a Wizard2 Automatic Gamma Counter (PerkinElmer).
# [6] = Ex vivo biodistribution, uptake in H1299 tumour xenografts; parameters: species or system BALB/c nu/nu mice
# Protocol: (§2) All animal procedures were performed in accordance with the UK Animals (Scientific Procedures) Act 1986 and with local ethical committee approval. Mice were bred from parent C57BL/6 J mice heterozygous for a targeted mutation in the ATM^tm1Awbl allele to produce ATM-null (ATM^−/−) mice (Jackson laboratory). Wild-type (ATM^+/+) mice from this breeding program were used as controls. In a separate study, tumour xenografts were created in BALB/c nu/nu mice (8 weeks old) via subcutaneous injection of H1299 wild type, shATM knockdown, or shGFP knockdown cells in a 1:1 PBS/Matrigel® formulation on both sides of the hind flank. Total tumour volumes were allowed to reach an average of 600 mm^3 (range 330–930 mm^3) before imaging and/or biodistribution studies (approx. 6–10 weeks after inoculation).
# Animals were anaesthetised by 4% isoflurane gas (0.5 L/min O2) and maintained at approx. 2% and 37 °C throughout the imaging session. C57BL/6 ATM^+/+ and ATM^−/− mice were administered [^18F]1 (83 ng; 0.5–4.6 MBq, molar activity range of 3.2–24.2 GBq/μmol with a standard deviation of 6.5 GBq/μmol) via intravenous bolus injection in the lateral tail vein. Xenograft-bearing BALB/c nu/nu mice were administered [^18F]1 (0.5 μg; 0.7–9.6 MBq, molar activity range of 0.62–9.8 GBq/μmol with a standard deviation of 3.0 GBq/μmol) via intravenous bolus injection to the lateral tail vein. PET/CT scanning was completed using a VECTor4CT scanner (MILabs, Utrecht, the Netherlands) for 1 h and was immediately followed by culling, dissection, and gamma counting of selected organs. Tumour tissue was immediately flash frozen in liquid nitrogen and mounted in OCT before producing 10 μm thick sections for autoradiography and H&E staining. Alternatively, frozen tumour tissue was macerated and lysed in RIPA buffer for western blot analysis (full details available in the supporting information). Reconstruction of both CT and PET images was performed with the MILabs reconstruction analysis using a γ-ray energy window of 467–571 keV (background weight 2.5%), 0.8 mm^3 voxel size, 8 subsets, and 5 iterations using the manufacturer’s SROSEM reconstruction type. PET images were each registered to CT, attenuation corrected, calibrated by imaging a phantom containing a fluorine-18 standard solution, and analysed using PMod software package (version 3.807, PMOD Technologies).
# [7] = PET/CT imaging and ex vivo biodistribution in wild type and ATM-null mice; parameters: species or system C57BL/6 mice; settings: 1 h after intravenous administration
# Protocol: as §2
# Animals were anaesthetised by 4% isoflurane gas (0.5 L/min O2) and maintained at approx. 2% and 37 °C throughout the imaging session. C57BL/6 ATM^+/+ and ATM^−/− mice were administered [^18F]1 (83 ng; 0.5–4.6 MBq, molar activity range of 3.2–24.2 GBq/μmol with a standard deviation of 6.5 GBq/μmol) via intravenous bolus injection in the lateral tail vein. […] PET images were each registered to CT, attenuation corrected, calibrated by imaging a phantom containing a fluorine-18 standard solution, and analysed using PMod software package (version 3.807, PMOD Technologies).
# [8] = parameters: method as in PMID 29938225, PMID 33123736; settings: phase I clinical trial; cited from earlier work
# [9] = BALB/c nu/nu mice, intravenous, 1 h
# T1 sequence (Q13315 whole entry): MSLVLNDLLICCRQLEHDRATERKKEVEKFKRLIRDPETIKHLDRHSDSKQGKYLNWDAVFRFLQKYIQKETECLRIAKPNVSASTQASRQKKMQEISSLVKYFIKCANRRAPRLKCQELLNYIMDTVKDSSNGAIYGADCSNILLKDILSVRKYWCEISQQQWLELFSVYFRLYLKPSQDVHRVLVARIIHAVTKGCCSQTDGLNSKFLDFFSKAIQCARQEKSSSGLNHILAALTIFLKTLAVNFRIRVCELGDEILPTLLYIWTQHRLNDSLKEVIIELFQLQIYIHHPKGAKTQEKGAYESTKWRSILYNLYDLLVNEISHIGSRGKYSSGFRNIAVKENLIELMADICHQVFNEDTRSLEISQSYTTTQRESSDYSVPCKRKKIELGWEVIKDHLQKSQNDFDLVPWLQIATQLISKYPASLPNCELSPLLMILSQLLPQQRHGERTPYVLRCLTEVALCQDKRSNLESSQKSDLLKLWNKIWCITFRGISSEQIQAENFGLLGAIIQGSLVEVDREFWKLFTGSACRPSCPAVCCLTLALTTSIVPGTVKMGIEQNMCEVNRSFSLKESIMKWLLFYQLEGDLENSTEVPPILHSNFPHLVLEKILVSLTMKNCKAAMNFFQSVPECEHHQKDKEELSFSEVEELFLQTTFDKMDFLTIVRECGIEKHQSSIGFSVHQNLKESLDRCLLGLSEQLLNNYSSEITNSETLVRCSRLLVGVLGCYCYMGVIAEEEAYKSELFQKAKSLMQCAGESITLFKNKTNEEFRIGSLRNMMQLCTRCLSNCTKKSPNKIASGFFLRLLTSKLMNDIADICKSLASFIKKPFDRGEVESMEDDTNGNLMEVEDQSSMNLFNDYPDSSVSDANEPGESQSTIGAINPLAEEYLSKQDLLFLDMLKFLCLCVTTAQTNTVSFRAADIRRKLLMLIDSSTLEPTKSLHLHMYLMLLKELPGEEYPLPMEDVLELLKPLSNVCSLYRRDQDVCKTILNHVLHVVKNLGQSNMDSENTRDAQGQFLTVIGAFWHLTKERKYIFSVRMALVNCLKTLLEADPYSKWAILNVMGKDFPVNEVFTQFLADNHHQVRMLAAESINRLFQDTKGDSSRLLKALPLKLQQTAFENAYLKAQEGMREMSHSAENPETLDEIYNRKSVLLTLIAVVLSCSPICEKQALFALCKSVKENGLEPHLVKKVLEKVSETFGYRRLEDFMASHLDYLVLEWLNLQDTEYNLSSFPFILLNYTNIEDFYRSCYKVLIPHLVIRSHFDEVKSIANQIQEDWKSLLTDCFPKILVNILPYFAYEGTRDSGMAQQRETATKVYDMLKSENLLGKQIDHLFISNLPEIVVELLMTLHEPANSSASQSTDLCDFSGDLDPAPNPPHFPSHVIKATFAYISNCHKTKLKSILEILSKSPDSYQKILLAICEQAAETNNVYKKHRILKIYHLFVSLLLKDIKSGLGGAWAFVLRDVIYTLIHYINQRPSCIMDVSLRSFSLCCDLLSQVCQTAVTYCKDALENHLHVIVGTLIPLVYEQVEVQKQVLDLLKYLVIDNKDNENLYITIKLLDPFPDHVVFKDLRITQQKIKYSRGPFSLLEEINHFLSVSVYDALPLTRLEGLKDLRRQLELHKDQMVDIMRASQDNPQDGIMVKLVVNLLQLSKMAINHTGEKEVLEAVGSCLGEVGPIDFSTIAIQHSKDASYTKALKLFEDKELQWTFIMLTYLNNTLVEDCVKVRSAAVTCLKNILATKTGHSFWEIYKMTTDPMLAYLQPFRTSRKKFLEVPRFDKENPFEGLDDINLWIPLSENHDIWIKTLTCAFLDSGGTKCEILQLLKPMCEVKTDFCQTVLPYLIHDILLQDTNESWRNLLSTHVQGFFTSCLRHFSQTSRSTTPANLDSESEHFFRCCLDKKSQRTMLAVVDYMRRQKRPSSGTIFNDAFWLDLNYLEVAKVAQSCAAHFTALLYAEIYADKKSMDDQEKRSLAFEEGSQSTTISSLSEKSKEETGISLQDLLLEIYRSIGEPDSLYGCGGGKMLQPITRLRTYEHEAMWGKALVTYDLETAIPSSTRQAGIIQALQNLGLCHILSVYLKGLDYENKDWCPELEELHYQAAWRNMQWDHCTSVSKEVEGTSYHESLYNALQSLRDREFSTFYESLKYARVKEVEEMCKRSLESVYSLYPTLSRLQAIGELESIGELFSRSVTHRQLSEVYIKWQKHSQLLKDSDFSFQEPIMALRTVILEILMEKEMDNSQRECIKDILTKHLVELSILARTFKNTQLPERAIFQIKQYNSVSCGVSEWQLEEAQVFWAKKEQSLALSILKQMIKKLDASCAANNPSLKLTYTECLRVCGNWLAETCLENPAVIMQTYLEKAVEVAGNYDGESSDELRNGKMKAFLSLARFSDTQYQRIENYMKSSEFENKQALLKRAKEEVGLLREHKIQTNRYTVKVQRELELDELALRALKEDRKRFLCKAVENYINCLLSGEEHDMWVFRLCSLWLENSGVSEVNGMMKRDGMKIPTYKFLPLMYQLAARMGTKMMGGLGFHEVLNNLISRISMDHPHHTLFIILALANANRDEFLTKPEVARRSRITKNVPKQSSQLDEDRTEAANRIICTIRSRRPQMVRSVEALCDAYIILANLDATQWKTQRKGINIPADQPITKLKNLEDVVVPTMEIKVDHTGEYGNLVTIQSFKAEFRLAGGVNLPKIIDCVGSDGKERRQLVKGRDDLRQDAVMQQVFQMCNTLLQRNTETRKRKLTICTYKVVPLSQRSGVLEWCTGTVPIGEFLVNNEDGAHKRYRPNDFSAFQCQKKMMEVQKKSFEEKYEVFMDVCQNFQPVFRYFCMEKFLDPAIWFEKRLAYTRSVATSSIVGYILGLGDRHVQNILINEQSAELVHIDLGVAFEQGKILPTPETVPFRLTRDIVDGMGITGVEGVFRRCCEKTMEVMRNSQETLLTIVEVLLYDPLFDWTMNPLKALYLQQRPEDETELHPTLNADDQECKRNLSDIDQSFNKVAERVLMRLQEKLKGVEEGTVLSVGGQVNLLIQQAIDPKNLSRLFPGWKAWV
structure (smiles),measurement,setting,value
"C[C@@H]1CN(CC(=O)Nc2ccc3c(c2)Cc2cccc(-c4cc(=O)cc(N5CCOCC5)o4)c2S3)C[C@H](C)O1 [KU60019, reference compound]","pATM expression and downstream targets pKAP1 and pCHK2, western blot",ATM [1],decrease in pATM expression
same,blocking of [18F]1 cell-associated activity,"ATM [2]; increasing concentrations of blocking agent, H1299 shATM and shGFP cells, 1 h tracer incubation",significant blocking
CC(C)n1c(=O)n(C)c2cnc3ccc(-c4ccc(OCCCN5CCCCC5)nc4[N+](=O)[O-])cc3c21 [compound 2],"pATM expression and downstream targets pKAP1 and pCHK2, western blot",ATM [1],decrease in pATM expression
CC(C)n1c(=O)n(C)c2cnc3cc(F)c(-c4ccc(OCCCN5CCCCC5)nc4)cc3c21 [AZD1390],"pATM expression and downstream targets pKAP1 and pCHK2, western blot",ATM [1],decrease in pATM expression
same,effect on [18F]1 cell-associated activity at high molar excess,ATM [2],increase in cell-associated activity
same,effect on [18F]1 cell-associated activity at lower inhibitor concentrations,ATM [2]; H1299 shATM and shGFP cells,initial blocking effect
CC(C)n1c(=O)n(C)c2cnc3ccc(-c4ccc(OCCCN5CCCCC5)nc4F)cc3c21 [compound 1],"pATM expression and downstream targets pKAP1 and pCHK2, western blot",ATM [1],decrease in pATM expression
same,effect on [18F]1 cell-associated activity at high molar excess,ATM [2],increase in cell-associated activity
same,effect on [18F]1 cell-associated activity at lower inhibitor concentrations,ATM [2]; H1299 shATM and shGFP cells,initial blocking effect
same,IC50,PI3K,5.75 µM
same,"murine ATM inhibition and reduction of downstream target pKAP1, western blot",murine ATM,murine ATM inhibition
same,IC50,ATR,> 30 µM
same,IC50,mTOR,> 5.19 µM
same,IC50,ATM [3]; read-out: Cellular IC50 by catalytic inhibition: ATM,< 0.00043 µM
same,IC50 value of ATM inhibition,ATM [3]; reported value,sub-nM
CC(C)n1c(=O)n(C)c2cnc3ccc(-c4ccc(OCCCN5CCCCC5)nc4[18F])cc3c21 [[^18F]1],decrease in cell-associated activity (retention),[4],approximately 50%
same,cell-associated activity (uptake),[5],increase in cell-associated activity over 1 h followed by a plateau
same,uptake in H1299 tumour xenografts (shATM),[6]; [9],0.35 ± 0.10 %ID/g
same,uptake in H1299 tumour xenografts (shGFP),[6]; [9],0.35 ± 0.14 %ID/g
same,uptake in H1299 tumour xenografts (wild type),[6]; [9],0.38 ± 0.12 %ID/g
same,"tumour uptake, range","[6]; after 1 h, all tumour types",0.13–0.90 %ID/g
same,clearance route,[6]; xenograft-bearing BALB/c nu/nu mice,hepatobiliary clearance
same,difference in uptake between wild type and ATM-null mice,[7]; C57BL/6 mice,Significant differences in uptake between the two mice were only observed in the kidneys and liver
same,clearance route,[7]; wild type and ATM-null C57BL/6 mice,hepatobiliary clearance
CC(C)n1c(=O)n([11CH3])c2cnc3cc(F)c(-c4ccc(OCCCN5CCCCC5)nc4)cc3c21 [[^11C]AZD1390],blood–brain barrier penetration by PET,[8],ability to cross the blood–brain barrier
